Results: ChEMBL document CHEMBL3885881, “DrugMatrix”

Species: Rattus norvegicus
Test: DrugMatrix - Regimen: Daily Repeat
Type: toxicity, organism-based, Sprague-Dawley
Design: regimen Daily Repeat, gender Male, age 6-8 weeks
Conditions: in vivo, po, route oral GAVAGE, vehicle .5 % CMC; for ABSOLUTE BASOPHIL / ABSOLUTE EOSINOPHIL / ABSOLUTE LYMPHOCYTE / ABSOLUTE MONOCYTE / ABSOLUTE SEGMENTED NEUTROPHIL / BASOPHIL / EOSINOPHIL / ERYTHROCYTE COUNT / HEMATOCRIT / HEMOGLOBIN / LEUKOCYTE COUNT / LYMPHOCYTE / MEAN CORPUSCULAR HEMOGLOBIN / MEAN CORPUSCULAR HEMOGLOBIN CONCENTRATION / MEAN CORPUSCULAR VOLUME / MONOCYTE / NEUTROPHIL / NUCLEATED RED BLOOD CELLS / PLATELET COUNT: tissue Blood; for ALANINE AMINOTRANSFERASE / ALBUMIN / ALKALINE PHOSPHATASE / ASPARTATE AMINOTRANSFERASE / BLOOD UREA NITROGEN / CARBON DIOXIDE / CHLORIDE / CHOLESTEROL / CREATINE PHOSPHOKINASE / CREATININE / GLUCOSE / LACTATE DEHYDROGENASE / LIPASE / PHOSPHORUS / POTASSIUM / SODIUM / TOTAL BILIRUBIN / TOTAL PROTEIN / URIC ACID: tissue Plasma
[1] = 0 mg/kg, 72 h, dose level Control, time 3 day
[2] = 0 mg/kg, 120 h, dose level Control, time 5 day
[3] = 3 mg/kg, 72 h, dose level Low, time 3 day

Which “ABSOLUTE BASOPHIL” value [1] does the source give for CC(=O)Nc1ccc2c(c1)Cc1ccccc1-2 [2-ACETYLAMINOFLUORENE] here?
Its value is 0 CELLS/uL.

And the “ABSOLUTE EOSINOPHIL” value [1]?
The value was 171.33 CELLS/uL.

And the “ABSOLUTE LYMPHOCYTE” value [1]?
The value was 13776.5 CELLS/uL.

What about the “ABSOLUTE MONOCYTE” value [1] of the same compound?
The value was 180.83 CELLS/uL.

What about the “ABSOLUTE SEGMENTED NEUTROPHIL” value [1] of the same compound?
The value was 1121.33 CELLS/uL.

And the BASOPHIL [1]?
Its BASOPHIL is 0%.

And the EOSINOPHIL [1]?
Its EOSINOPHIL is 1%.

And the “ERYTHROCYTE COUNT” value [1]?
Its value is 5.56 x10E6/uL.

And the HEMATOCRIT [1]?
The HEMATOCRIT was 34.75%.

What about the HEMOGLOBIN [1] of the same compound?
The HEMOGLOBIN was 13.68 G/DL.

And the “LEUKOCYTE COUNT” value [1]?
Its value is 15.25 x10E3/uL.

And the LYMPHOCYTE [1]?
The LYMPHOCYTE was 90.17%.

And the “MEAN CORPUSCULAR HEMOGLOBIN” value [1]?
Its value is 24.6 pg.

What about the “MEAN CORPUSCULAR HEMOGLOBIN CONCENTRATION” value [1] of the same compound?
The value was 39.4 G/DL.

And the “MEAN CORPUSCULAR VOLUME” value [1]?
The value was 62.48 fL.

And the MONOCYTE [1]?
The MONOCYTE was 1.17%.

And the NEUTROPHIL [1]?
The NEUTROPHIL was 7.67%.

And the “NUCLEATED RED BLOOD CELLS” value [1]?
The value was 0 /100WBC.

And the “PLATELET COUNT” value [1]?
The value was 1342 x10E3/uL.

And the “ALANINE AMINOTRANSFERASE” value [1]?
The value was 49.67 u/L.

What about the ALBUMIN [1] of the same compound?
The ALBUMIN was 4.15 G/DL.

What about the “ALKALINE PHOSPHATASE” value [1] of the same compound?
The value was 346.83 u/L.

What about the “ASPARTATE AMINOTRANSFERASE” value [1] of the same compound?
The value was 108.17 u/L.

And the “BLOOD UREA NITROGEN” value [1]?
The value was 17.33 mg/dL.

What about the “CARBON DIOXIDE” value [1] of the same compound?
The value was 25 mmol/L.

What about the CHLORIDE [1] of the same compound?
The CHLORIDE was 100.83 MEQ/L.

What about the CHOLESTEROL [1] of the same compound?
The CHOLESTEROL was 66.83 mg/dL.

What about the “CREATINE PHOSPHOKINASE” value [1] of the same compound?
The value was 788 u/L.

And the CREATININE [1]?
The CREATININE was 0.18 mg/dL.

What about the GLUCOSE [1] of the same compound?
The GLUCOSE was 151.67 mg/dL.

And the “LACTATE DEHYDROGENASE” value [1]?
Its value is 982.5 u/L.

What about the LIPASE [1] of the same compound?
The LIPASE was 10.33 u/L.

What about the PHOSPHORUS [1] of the same compound?
Its PHOSPHORUS is 11.23 mg/dL.

And the POTASSIUM [1]?
The POTASSIUM was 6.37 MEQ/L.

What about the SODIUM [1] of the same compound?
Its SODIUM is 141.02 MEQ/L.

What about the “TOTAL BILIRUBIN” value [1] of the same compound?
Its value is 0.18 mg/dL.

And the “TOTAL PROTEIN” value [1]?
The value was 5.9 G/DL.

What about the “URIC ACID” value [1] of the same compound?
Its value is 1.8 mg/dL.

What about the “ABSOLUTE BASOPHIL” value [2] of the same compound?
The value was 0 CELLS/uL.

What about the “ABSOLUTE EOSINOPHIL” value [2] of the same compound?
The value was 69 CELLS/uL.

And the “ABSOLUTE LYMPHOCYTE” value [2]?
Its value is 13632.83 CELLS/uL.

And the “ABSOLUTE MONOCYTE” value [2]?
The value was 139.83 CELLS/uL.

And the “ABSOLUTE SEGMENTED NEUTROPHIL” value [2]?
Its value is 1225 CELLS/uL.

What about the BASOPHIL [2] of the same compound?
The BASOPHIL was 0%.

And the EOSINOPHIL [2]?
The EOSINOPHIL was 0.33%.

What about the “ERYTHROCYTE COUNT” value [2] of the same compound?
Its value is 5.52 x10E6/uL.

What about the HEMATOCRIT [2] of the same compound?
The HEMATOCRIT was 33.98%.

And the HEMOGLOBIN [2]?
Its HEMOGLOBIN is 13.22 G/DL.

And the “LEUKOCYTE COUNT” value [2]?
Its value is 15.07 x10E3/uL.

And the LYMPHOCYTE [2]?
Its LYMPHOCYTE is 90.83%.

And the “MEAN CORPUSCULAR HEMOGLOBIN” value [2]?
The value was 23.95 pg.

What about the “MEAN CORPUSCULAR HEMOGLOBIN CONCENTRATION” value [2] of the same compound?
Its value is 38.9 G/DL.

And the “MEAN CORPUSCULAR VOLUME” value [2]?
Its value is 61.53 fL.

What about the MONOCYTE [2] of the same compound?
The MONOCYTE was 0.83%.

And the NEUTROPHIL [2]?
The NEUTROPHIL was 8%.

And the “NUCLEATED RED BLOOD CELLS” value [2]?
The value was 0 /100WBC.

And the “PLATELET COUNT” value [2]?
The value was 1196 x10E3/uL.

And the “ALANINE AMINOTRANSFERASE” value [2]?
The value was 49.17 u/L.

And the ALBUMIN [2]?
Its ALBUMIN is 4.2 G/DL.

And the “ALKALINE PHOSPHATASE” value [2]?
The value was 352.33 u/L.

What about the “ASPARTATE AMINOTRANSFERASE” value [2] of the same compound?
The value was 89.67 u/L.

And the “BLOOD UREA NITROGEN” value [2]?
The value was 18 mg/dL.

What about the “CARBON DIOXIDE” value [2] of the same compound?
The value was 27.67 mmol/L.

And the CHLORIDE [2]?
Its CHLORIDE is 101 MEQ/L.

What about the CHOLESTEROL [2] of the same compound?
The CHOLESTEROL was 72.83 mg/dL.

And the “CREATINE PHOSPHOKINASE” value [2]?
Its value is 417.5 u/L.

And the CREATININE [2]?
Its CREATININE is 0.18 mg/dL.

And the GLUCOSE [2]?
The GLUCOSE was 150.5 mg/dL.

What about the “LACTATE DEHYDROGENASE” value [2] of the same compound?
The value was 517.33 u/L.

What about the LIPASE [2] of the same compound?
The LIPASE was 9 u/L.

And the PHOSPHORUS [2]?
The PHOSPHORUS was 11.87 mg/dL.

What about the POTASSIUM [2] of the same compound?
The POTASSIUM was 6.57 MEQ/L.

What about the SODIUM [2] of the same compound?
Its SODIUM is 143.62 MEQ/L.

What about the “TOTAL BILIRUBIN” value [2] of the same compound?
Its value is 0.2 mg/dL.

What about the “TOTAL PROTEIN” value [2] of the same compound?
The value was 6.08 G/DL.

What about the “URIC ACID” value [2] of the same compound?
Its value is 1.45 mg/dL.

What about the “ABSOLUTE BASOPHIL” value [3] of the same compound?
The value was 0 CELLS/uL.

What about the “ABSOLUTE EOSINOPHIL” value [3] of the same compound?
The value was 75.33 CELLS/uL.

And the “ABSOLUTE LYMPHOCYTE” value [3]?
Its value is 11859.67 CELLS/uL.

What about the “ABSOLUTE MONOCYTE” value [3] of the same compound?
The value was 186.67 CELLS/uL.

What about the “ABSOLUTE SEGMENTED NEUTROPHIL” value [3] of the same compound?
Its value is 911.67 CELLS/uL.

And the BASOPHIL [3]?
The BASOPHIL was 0%.

What about the EOSINOPHIL [3] of the same compound?
Its EOSINOPHIL is 0.67%.

And the “ERYTHROCYTE COUNT” value [3]?
The value was 5.43 x10E6/uL.

What about the HEMATOCRIT [3] of the same compound?
The HEMATOCRIT was 34.07%.

What about the HEMOGLOBIN [3] of the same compound?
The HEMOGLOBIN was 13.33 G/DL.

What about the “LEUKOCYTE COUNT” value [3] of the same compound?
The value was 13.03 x10E3/uL.

What about the LYMPHOCYTE [3] of the same compound?
Its LYMPHOCYTE is 91%.

And the “MEAN CORPUSCULAR HEMOGLOBIN” value [3]?
Its value is 24.57 pg.

And the “MEAN CORPUSCULAR HEMOGLOBIN CONCENTRATION” value [3]?
Its value is 39.2 G/DL.

And the “MEAN CORPUSCULAR VOLUME” value [3]?
Its value is 62.73 fL.

And the MONOCYTE [3]?
Its MONOCYTE is 1.33%.

What about the NEUTROPHIL [3] of the same compound?
Its NEUTROPHIL is 7%.

What about the “NUCLEATED RED BLOOD CELLS” value [3] of the same compound?
The value was 0 /100WBC.

What about the “PLATELET COUNT” value [3] of the same compound?
Its value is 1354.67 x10E3/uL.

And the “ALANINE AMINOTRANSFERASE” value [3]?
Its value is 43.33 u/L.

What about the ALBUMIN [3] of the same compound?
The ALBUMIN was 4.2 G/DL.

And the “ALKALINE PHOSPHATASE” value [3]?
Its value is 360.33 u/L.

And the “ASPARTATE AMINOTRANSFERASE” value [3]?
The value was 88.67 u/L.

What about the “BLOOD UREA NITROGEN” value [3] of the same compound?
Its value is 18.33 mg/dL.

And the “CARBON DIOXIDE” value [3]?
The value was 26.33 mmol/L.

What about the CHLORIDE [3] of the same compound?
Its CHLORIDE is 100.67 MEQ/L.

And the CHOLESTEROL [3]?
The CHOLESTEROL was 65 mg/dL.

And the “CREATINE PHOSPHOKINASE” value [3]?
The value was 452 u/L.

And the CREATININE [3]?
Its CREATININE is 0.23 mg/dL.

What about the GLUCOSE [3] of the same compound?
The GLUCOSE was 148.33 mg/dL.

What about the “LACTATE DEHYDROGENASE” value [3] of the same compound?
Its value is 641.33 u/L.

And the LIPASE [3]?
The LIPASE was 10.33 u/L.

What about the PHOSPHORUS [3] of the same compound?
The PHOSPHORUS was 11.33 mg/dL.

And the POTASSIUM [3]?
Its POTASSIUM is 6.45 MEQ/L.

What about the SODIUM [3] of the same compound?
The SODIUM was 141.2 MEQ/L.

What about the “TOTAL BILIRUBIN” value [3] of the same compound?
The value was 0.23 mg/dL.

What about the “TOTAL PROTEIN” value [3] of the same compound?
The value was 5.9 G/DL.

What about the “URIC ACID” value [3] of the same compound?
The value was 1.6 mg/dL.
